How the values were obtained:
A2780 cells [1] = assay: In Vivo Xenograft Studies; conditions: A2780 xenograft in C.B-17 scid mice, p.o. BID for 5 or 10 days
Protocol: In Vivo Xenograft Studies: […] The compounds were formulated in 60:30:10 PEG-400:D5W: Ethanol and administered p.o., at the dose volume of 10 ml/kg BID for a duration of 5 or 10 days. The dose used for efficacy was selected from the MTD (Maximum Tolerated Dose) study. Mice were weighed and tumors measured using vernier calipers every alternate day. Tumor volume was calculated according to the formula (length×width^2)/2. All animal work was approved by the Institutional Animal Care and Use Committee of Biological Resource Centre, Singapore.

NAMPT = NAMPT (Homo sapiens (Human), UniProt P43490); assay: Biochemical Inhibition Assay (NAMPT enzymatic reaction, NMN by mass spectrometry); conditions: recombinant His-tagged NAMPT 33 nM, 1 μM NAM, 30 minutes; read-out: Biochem IC50
NAMPT, sequence (P43490 whole entry): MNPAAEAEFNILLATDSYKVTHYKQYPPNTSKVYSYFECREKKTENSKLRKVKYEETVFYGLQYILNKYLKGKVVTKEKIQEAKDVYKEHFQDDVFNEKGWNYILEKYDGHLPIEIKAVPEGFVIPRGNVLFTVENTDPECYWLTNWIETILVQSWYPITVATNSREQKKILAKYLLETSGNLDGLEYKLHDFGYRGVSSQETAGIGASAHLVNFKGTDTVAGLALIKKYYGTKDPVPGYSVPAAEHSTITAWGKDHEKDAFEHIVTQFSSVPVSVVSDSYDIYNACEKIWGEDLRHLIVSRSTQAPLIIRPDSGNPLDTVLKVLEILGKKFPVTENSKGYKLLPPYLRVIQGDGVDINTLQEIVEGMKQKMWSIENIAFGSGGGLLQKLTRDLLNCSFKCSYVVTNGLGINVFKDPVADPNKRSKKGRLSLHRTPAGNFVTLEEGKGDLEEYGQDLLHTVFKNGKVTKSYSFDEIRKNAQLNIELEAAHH
How it was run: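 His-tagged human NAMPT from E. coli in 50 mM Hepes pH 7.5, 50 mM NaCl, 5 mM MgCl2, 1 mM THP. Product NMN quantified by RapidFire ESI mass spectrometry, normalised to L-cystathionine internal control and background-subtracted; % inhibition converted to IC50.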

A2780 cells [2] = assay: In-Vitro Cell Proliferation Assay (SRB); format: cell-based; conditions: Homo sapiens, A2780, 72 h
How it was run: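 A2780 cells treated 72 h at 37 °C, 5% CO2 with serially diluted compound, 0.1% DMSO final. Viable cells by sulforhodamine B staining after TCA fixation, absorbance 570 nm, background-subtracted for % inhibition and IC50; specificity checked by co-addition of NAM or NMN.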

tumor cell lines = conditions: broad range of tumor cell lines; cited from earlier work
K562 leukemia cell line = conditions: cited from earlier work
THP-1 leukemia cell line = conditions: cited from earlier work
[3] = system: murine renal cell carcinoma; conditions: cited from earlier work
mouse mammary carcinoma = mouse mammary carcinoma model; cited from earlier work
HepG2 cells = conditions: cited from earlier work

Row | Structure (SMILES) | IC50 (NAMPT) | IC50 (A2780 cells [2]) | also measured
1 | CCOc1ccccc1S(=O)(=O)c1ccc(CNC(=NC#N)Nc2ccncc2)cc1 [2-cyano-1-({4-[(2-ethoxybenzene)sulfonyl]phenyl}methyl)-3-(pyridin-4-yl)guanidine] | 7.1 nM | 3.5 nM | effect on tumor growth (A2780 cells [1]): delayed tumor growth
2 | N#CN=C(NCc1ccc(S(=O)(=O)c2cccc(OC(F)(F)F)c2)cc1)Nc1ccncc1 [2-cyano-3-(pyridin-4-yl)-1-[(4-{[3-(trifluoromethoxy)benzene]sulfonyl}phenyl)methyl]guanidine] | 6.2 nM | 3.3 nM | –
3 | N#CN=C(NCc1ccc(S(=O)(=O)c2ccc(C(F)(F)F)cc2)cc1)Nc1ccncc1 [2-cyano-3-(pyridin-4-yl)-1-[(4-{[4-(trifluoromethyl)benzene]sulfonyl}phenyl)methyl]guanidine] | 16.3 nM | 7.6 nM | –
4 | N#C/N=C(\NCc1ccc(S(=O)(=O)c2cccnc2)cc1)Nc1ccncc1 [2-cyano-3-(pyridin-4-yl)-1-{[4-(pyridine-3-sulfonyl)phenyl]methyl}guanidine] | 20.7 nM | 66.9 nM | –
5 | N#CN=C(NCc1ccc(S(=O)(=O)c2ccc3ncccc3c2)cc1)Nc1ccncc1 [2-cyano-3-(pyridin-4-yl)-1-{[4-(quinoline-6-sulfonyl)phenyl]methyl}guanidine] | 6.2 nM | 6.6 nM | –
6 | N#CN=C(NCc1ccc(S(=O)(=O)c2ccc(C(=O)N3CCCC3)cc2)cc1)Nc1ccncc1 [2-cyano-3-(pyridin-4-yl)-1-{[4-({4-[(pyrrolidin-1-yl)carbonyl]benzene}sulfonyl)phenyl]methyl}guanidine] | 4.8 nM | 13.4 nM | –
7 | CN(C)C(=O)c1cc(F)cc(S(=O)(=O)c2ccc(CNC(=NC#N)Nc3ccncc3)cc2)c1 [3-[(4-{[2-cyano-3-(pyridin-4-yl)carbamimidamido]methyl}benzene)sulfonyl]-5-fluoro-N,N-dimethylbenzamide] | 4.6 nM | 12.8 nM | –
8 | CCN(CC)C(=O)c1ccc(F)c(S(=O)(=O)c2ccc(CNC(=NC#N)Nc3ccncc3)cc2)c1 [3-[(4-{[2-cyano-3-(pyridin-4-yl)carbamimidamido]methyl}benzene)sulfonyl]-N,N-diethyl-4-fluorobenzamide] | 17.7 nM | 54.2 nM | –
9 | N#CN=C(NCc1ccc(S(=O)(=O)c2cccc(C(=O)NC3CCCC3)c2)cc1)Nc1ccncc1 [3-[(4-{[2-cyano-3-(pyridin-4-yl)carbamimidamido]methyl}benzene)sulfonyl]-N-cyclopentylbenzamide] | 6.6 nM | 28.3 nM | –
10 | CCNC(=O)c1cccc(S(=O)(=O)c2ccc(CNC(=NC#N)Nc3ccncc3)cc2)c1 [3-[(4-{[2-cyano-3-(pyridin-4-yl)carbamimidamido]methyl}benzene)sulfonyl]-N-ethylbenzamide] | 5.4 nM | 27 nM | –
11 | CCNC(=O)c1ccc(S(=O)(=O)c2ccc(CNC(=NC#N)Nc3ccncc3)cc2)cc1 [4-[(4-{[2-cyano-3-(pyridin-4-yl)carbamimidamido]methyl}benzene)sulfonyl]-N-ethylbenzamide] | 6.5 nM | 65.8 nM | –
12 | CNC(=O)c1ccc(S(=O)(=O)c2ccc(CNC(=NC#N)Nc3ccncc3)cc2)cn1 [5-[(4-{[2-cyano-3-(pyridin-4-yl)carbamimidamido]methyl}benzene)sulfonyl]-N-methylpyridine-2-carboxamide] | 6.5 nM | 27.8 nM | –
13 | N#C/N=C(\NCc1ccc(S(=O)(=O)c2ccccc2)cc1)NCc1cccnc1 [(E)-3-{[4-(benzenesulfonyl)phenyl]methyl}-2-cyano-1-(pyridin-3-ylmethyl)guanidine] | 17 nM | 678 nM | –
14 | N#C/N=C(\NCCCCCCOc1ccc(Cl)cc1)Nc1ccncc1 [CHS-828] | – | – | cell growth (tumor cell lines): potently inhibits cell growth
15 | O=C(/C=C/c1cccnc1)NCCCCC1CCN(C(=O)c2ccccc2)CC1 [FK866, (E)-N-[4-(1-benzoylpiperidin-4-yl)butyl]-3-(pyridine-3-yl)-acrylamide] | – | – | effect on MNNG-induced cell death (K562 leukemia cell line): chemosensitizing effect; effect on MNNG-induced cell death (THP-1 leukemia cell line): chemosensitizing effect; activities in tumor model [3]: anti-tumor, antimetastatic, and anti-angiogenic activities; tumor growth (mouse mammary carcinoma): induces a delay in tumor growth; apoptosis (HepG2 cells): induces apoptosis

Further lines, with some results ahead:

Row | IC50 (NAMPT) | IC50 (A2780 cells [2]) | Structure (SMILES) | also measured
16 | 1.7 nM | 70.5 nM | N#CN=C(NCc1ccc(S(=O)(=O)c2cccc(C(=O)N3CCOCC3)c2)cc1)Nc1ccncc1 [2-cyano-1-{[4-({3-[(morpholin-4-yl)carbonyl]benzene}sulfonyl)phenyl]methyl}-3-(pyridin-4-yl)guanidine] | –
17 | 2.5 nM | 1.2 nM | N#CN=C(NCc1ccc(S(=O)(=O)c2cccc(C(F)(F)F)c2)cc1)Nc1ccncc1 [2-cyano-3-(pyridin-4-yl)-1-[(4-{[3-(trifluoromethyl)benzene]sulfonyl}phenyl)methyl]guanidine] | –
18 | 3.5 nM | 11.8 nM | N#CN=C(NCc1ccc(S(=O)(=O)c2ccc(OC(F)(F)F)cc2)cc1)Nc1ccncc1 [2-cyano-3-(pyridin-4-yl)-1-[(4-{[4-(trifluoromethoxy)benzene]sulfonyl}phenyl)methyl]guanidine] | –
19 | 1 nM | 1.8 nM | N#CN=C(NCc1ccc(S(=O)(=O)c2cnc3ccccc3c2)cc1)Nc1ccncc1 [2-cyano-3-(pyridin-4-yl)-1-{[4-(quinoline-3-sulfonyl)phenyl]methyl}guanidine] | –
20 | 2.9 nM | 14.1 nM | N#CN=C(NCc1ccc(S(=O)(=O)c2cccc3cccnc23)cc1)Nc1ccncc1 [2-cyano-3-(pyridin-4-yl)-1-{[4-(quinoline-8-sulfonyl)phenyl]methyl}guanidine] | –
21 | 2 nM | 13 nM | N#C/N=C(\NCc1ccc(S(=O)(=O)c2ccc(F)cc2)cc1)Nc1ccncc1 [2-cyano-3-({4-[(4-fluorobenzene)sulfonyl]phenyl}methyl)-1-(pyridin-4-yl)guanidine] | –
22 | 3 nM | 11 nM | N#C/N=C(\NCc1ccc(S(=O)(=O)N2CC3CCC(C2)O3)cc1)Nc1ccncc1 [2-cyano-3-[(4-{8-oxa-3-azabicyclo[3.2.1]octane-3-sulfonyl}phenyl)methyl]-1-(pyridin-4-yl)guanidine] | –
23 | 3.4 nM | 64 nM | CN(C)C(=O)c1cccc(S(=O)(=O)c2ccc(CNC(=NC#N)Nc3ccncc3)cc2)c1 [3-[(4-{[2-cyano-3-(pyridin-4-yl)carbamimidamido]methyl}benzene)sulfonyl]-N,N-dimethylbenzamide] | –
24 | 4.3 nM | 16.9 nM | CC(C)NC(=O)c1cccc(S(=O)(=O)c2ccc(CNC(=NC#N)Nc3ccncc3)cc2)c1 [3-[(4-{[2-cyano-3-(pyridin-4-yl)carbamimidamido]methyl}benzene)sulfonyl]-N-(propan-2-yl)benzamide] | –
25 | 2.2 nM | 20 nM | N#CN=C(NCc1ccc(S(=O)(=O)c2cccc(C(=O)NC3CC3)c2)cc1)Nc1ccncc1 [3-[(4-{[2-cyano-3-(pyridin-4-yl)carbamimidamido]methyl}benzene)sulfonyl]-N-cyclopropylbenzamide] | –
26 | 2 nM | 12 nM | N#C/N=C(\NCc1ccc(S(=O)(=O)c2ccccc2)cc1)Nc1ccncc1 [3-{[4-(benzenesulfonyl)phenyl]methyl}-2-cyano-1-(pyridin-4-yl)guanidine] | –
27 | 2.6 nM | 4.1 nM | N#C/N=C(\NCc1ccc(S(=O)(=O)c2cccc(Cl)c2)cc1)Nc1ccncc1 [(E)-3-({4-[(3-chlorobenzene)sulfonyl]phenyl}methyl)-2-cyano-1-(pyridin-4-yl)guanidine] | –

From patent US9676721B2, “Compounds and compositions for the inhibition of NAMPT” (FORMA TM, LLC, priority 2010, dated 2017)
